Test results published in BindingDB's records for doi:10.1128/AAC.01311-05 (Microbiotix, 2007).

Tests used:
[1] = biological target: DNA polymerase III subunit alpha (Bacillus subtilis (strain 168), UniProt O34623); experiment: DNA Polymerase Activity Assay; conditions: pH 7.5; 30 °C
Procedure: (§1) Reaction velocities were determined at each dGTP concentration and used to create double reciprocal plots of velocity versus dGTP concentration. The plots were used to assess the mechanism of inhibition and calculate the apparent Ki value for the inhibitor.

[2] = biological target: DNA polymerase III subunit alpha (Escherichia coli (strain K12), UniProt P10443); experiment: DNA Polymerase Activity Assay; conditions: pH 7.5; 30 °C
Procedure: as §1

[3] = biological target: T1, DNA polymerase alpha subunit B (Bos taurus, UniProt Q58D13); experiment: DNA Polymerase Activity Assay; conditions: pH 7.5; 37 °C
T1 sequence (Q58D13 whole entry): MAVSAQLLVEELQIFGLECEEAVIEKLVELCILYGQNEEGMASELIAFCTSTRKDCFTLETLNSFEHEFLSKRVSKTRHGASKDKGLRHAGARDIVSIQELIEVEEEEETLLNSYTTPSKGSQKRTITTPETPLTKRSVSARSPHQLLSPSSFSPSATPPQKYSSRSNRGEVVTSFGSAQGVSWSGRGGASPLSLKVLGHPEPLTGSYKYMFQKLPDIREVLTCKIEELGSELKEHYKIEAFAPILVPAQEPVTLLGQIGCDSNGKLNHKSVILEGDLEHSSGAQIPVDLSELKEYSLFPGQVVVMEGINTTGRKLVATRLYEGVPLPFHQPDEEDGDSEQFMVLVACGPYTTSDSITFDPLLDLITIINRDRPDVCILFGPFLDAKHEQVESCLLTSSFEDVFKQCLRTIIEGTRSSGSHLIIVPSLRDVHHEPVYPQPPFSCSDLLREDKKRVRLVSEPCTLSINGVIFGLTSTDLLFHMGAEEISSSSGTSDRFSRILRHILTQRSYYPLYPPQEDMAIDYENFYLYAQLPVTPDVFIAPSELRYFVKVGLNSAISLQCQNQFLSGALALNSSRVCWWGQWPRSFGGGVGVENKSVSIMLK
Procedure: as §1

[4] = biological target: DNA topoisomerase 4 subunit A [V210L]/B (Bacillus subtilis, UniProt Q45066+Q59192, V210L); experiment: DNA Topoisomerase IV Assay; conditions: pH 7.5; 30 °C
[5] = biological target: DNA gyrase subunit A/B (Bacillus subtilis (strain 168), UniProt P05652+P05653); experiment: DNA Gyrase Activity Assay; conditions: pH 7.5; 30 °C
Sequence of DNA gyrase subunit A/B (P05653 whole entry): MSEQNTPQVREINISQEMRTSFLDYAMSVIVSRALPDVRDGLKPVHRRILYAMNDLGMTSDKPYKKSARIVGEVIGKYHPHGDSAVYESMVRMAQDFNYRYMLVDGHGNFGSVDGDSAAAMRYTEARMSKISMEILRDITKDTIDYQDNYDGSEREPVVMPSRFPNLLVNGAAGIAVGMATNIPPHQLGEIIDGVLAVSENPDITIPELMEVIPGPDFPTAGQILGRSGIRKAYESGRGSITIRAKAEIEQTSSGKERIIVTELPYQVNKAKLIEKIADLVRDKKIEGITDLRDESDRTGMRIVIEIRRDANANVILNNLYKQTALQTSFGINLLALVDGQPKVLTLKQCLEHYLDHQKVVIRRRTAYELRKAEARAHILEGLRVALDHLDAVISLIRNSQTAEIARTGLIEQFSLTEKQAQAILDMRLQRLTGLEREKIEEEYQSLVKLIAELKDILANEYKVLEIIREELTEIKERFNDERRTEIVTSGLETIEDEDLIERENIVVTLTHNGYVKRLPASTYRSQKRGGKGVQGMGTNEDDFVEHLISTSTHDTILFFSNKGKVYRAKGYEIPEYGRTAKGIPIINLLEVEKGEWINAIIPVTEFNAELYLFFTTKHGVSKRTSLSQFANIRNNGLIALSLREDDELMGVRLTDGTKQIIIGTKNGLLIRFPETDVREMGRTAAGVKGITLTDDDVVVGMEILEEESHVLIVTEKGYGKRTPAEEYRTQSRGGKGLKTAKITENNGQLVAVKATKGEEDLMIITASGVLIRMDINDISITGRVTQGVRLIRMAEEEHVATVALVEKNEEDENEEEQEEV
Sequence of DNA gyrase subunit A/B (P05652 whole entry): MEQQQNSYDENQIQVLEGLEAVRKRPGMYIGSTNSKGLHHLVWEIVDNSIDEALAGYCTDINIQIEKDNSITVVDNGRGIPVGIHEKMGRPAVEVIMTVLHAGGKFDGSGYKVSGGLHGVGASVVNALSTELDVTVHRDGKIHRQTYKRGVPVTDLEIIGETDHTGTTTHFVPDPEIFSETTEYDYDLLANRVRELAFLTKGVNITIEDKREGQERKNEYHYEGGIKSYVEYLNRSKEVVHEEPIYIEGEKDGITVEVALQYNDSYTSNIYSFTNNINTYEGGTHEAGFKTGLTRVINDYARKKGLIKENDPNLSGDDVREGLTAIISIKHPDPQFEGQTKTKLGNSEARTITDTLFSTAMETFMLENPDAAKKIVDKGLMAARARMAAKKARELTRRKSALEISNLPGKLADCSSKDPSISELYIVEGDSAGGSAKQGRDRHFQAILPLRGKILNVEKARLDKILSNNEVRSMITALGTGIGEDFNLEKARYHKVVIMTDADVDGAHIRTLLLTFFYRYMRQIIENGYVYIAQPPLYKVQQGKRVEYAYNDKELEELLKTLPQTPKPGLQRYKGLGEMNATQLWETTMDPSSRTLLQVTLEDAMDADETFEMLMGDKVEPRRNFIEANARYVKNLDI

Sequence of DNA topoisomerase 4 subunit A [V210L]/B (Q45066 whole entry V210L): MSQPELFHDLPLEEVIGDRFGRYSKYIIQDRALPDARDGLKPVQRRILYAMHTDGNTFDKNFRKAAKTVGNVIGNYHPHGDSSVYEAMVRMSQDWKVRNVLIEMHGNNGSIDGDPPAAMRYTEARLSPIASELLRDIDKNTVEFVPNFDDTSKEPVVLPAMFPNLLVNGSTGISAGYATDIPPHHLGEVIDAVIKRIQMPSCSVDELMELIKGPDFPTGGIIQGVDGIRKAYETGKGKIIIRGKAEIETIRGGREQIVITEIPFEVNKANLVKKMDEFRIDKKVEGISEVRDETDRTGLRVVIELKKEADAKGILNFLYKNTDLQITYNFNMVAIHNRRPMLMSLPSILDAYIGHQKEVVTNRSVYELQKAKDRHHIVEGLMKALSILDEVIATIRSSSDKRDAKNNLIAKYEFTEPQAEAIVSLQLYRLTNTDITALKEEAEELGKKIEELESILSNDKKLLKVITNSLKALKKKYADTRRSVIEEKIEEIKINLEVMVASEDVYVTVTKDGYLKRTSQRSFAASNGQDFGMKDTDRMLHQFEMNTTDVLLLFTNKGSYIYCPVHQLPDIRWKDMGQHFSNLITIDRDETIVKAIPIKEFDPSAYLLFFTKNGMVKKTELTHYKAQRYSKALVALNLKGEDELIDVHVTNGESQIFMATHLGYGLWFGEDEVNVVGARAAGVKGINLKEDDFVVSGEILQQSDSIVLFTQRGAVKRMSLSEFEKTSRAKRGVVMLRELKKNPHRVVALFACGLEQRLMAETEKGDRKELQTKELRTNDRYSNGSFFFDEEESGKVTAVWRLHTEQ
Sequence of DNA topoisomerase 4 subunit A [V210L]/B (Q59192 whole entry): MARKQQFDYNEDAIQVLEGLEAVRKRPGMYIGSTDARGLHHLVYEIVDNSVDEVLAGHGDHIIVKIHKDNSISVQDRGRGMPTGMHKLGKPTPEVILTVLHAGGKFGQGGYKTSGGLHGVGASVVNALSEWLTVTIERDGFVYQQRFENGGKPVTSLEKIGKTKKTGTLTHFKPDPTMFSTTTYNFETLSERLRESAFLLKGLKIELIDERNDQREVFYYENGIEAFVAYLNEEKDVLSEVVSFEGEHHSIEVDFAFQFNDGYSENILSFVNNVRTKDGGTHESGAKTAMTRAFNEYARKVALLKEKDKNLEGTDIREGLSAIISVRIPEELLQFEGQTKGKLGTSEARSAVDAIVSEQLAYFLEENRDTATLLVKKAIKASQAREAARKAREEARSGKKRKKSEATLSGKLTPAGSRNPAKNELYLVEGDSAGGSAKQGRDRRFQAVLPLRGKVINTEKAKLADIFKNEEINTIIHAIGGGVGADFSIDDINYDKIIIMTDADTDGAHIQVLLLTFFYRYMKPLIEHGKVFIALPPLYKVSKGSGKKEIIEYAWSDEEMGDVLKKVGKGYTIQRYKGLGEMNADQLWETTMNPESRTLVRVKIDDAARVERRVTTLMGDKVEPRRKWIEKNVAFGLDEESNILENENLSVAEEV
Sequence of DNA polymerase III subunit alpha (Escherichia coli (strain K12), UniProt P10443) (P10443 whole entry): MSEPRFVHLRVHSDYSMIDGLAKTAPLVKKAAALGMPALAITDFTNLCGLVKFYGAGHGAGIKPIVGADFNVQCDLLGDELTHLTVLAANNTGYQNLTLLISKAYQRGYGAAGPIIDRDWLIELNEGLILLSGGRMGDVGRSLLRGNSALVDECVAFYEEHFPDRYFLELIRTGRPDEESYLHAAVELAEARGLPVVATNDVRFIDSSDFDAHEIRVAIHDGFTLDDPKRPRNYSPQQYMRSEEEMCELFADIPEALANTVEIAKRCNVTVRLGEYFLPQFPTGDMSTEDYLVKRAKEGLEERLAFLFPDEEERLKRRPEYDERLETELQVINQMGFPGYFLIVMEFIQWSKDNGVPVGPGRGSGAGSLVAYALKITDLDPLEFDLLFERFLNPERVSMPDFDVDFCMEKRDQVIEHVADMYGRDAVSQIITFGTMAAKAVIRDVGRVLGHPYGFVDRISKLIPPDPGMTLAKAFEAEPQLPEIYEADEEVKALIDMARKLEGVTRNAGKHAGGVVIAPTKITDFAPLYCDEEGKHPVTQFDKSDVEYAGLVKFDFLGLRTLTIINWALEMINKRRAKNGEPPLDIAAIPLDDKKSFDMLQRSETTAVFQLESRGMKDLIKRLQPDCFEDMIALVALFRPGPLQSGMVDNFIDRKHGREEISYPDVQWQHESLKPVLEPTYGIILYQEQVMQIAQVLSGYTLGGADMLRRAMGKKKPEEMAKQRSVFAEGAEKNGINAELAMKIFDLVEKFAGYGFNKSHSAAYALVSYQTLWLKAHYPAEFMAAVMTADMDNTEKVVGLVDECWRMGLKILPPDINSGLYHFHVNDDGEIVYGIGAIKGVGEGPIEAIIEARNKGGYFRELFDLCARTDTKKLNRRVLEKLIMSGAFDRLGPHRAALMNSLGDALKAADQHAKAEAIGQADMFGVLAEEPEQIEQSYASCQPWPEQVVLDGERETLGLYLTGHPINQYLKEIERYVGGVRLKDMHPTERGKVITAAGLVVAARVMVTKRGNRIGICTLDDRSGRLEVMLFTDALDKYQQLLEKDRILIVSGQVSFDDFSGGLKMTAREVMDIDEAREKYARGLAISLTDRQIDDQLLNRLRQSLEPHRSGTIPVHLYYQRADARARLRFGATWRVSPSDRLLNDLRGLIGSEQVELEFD

| Structure (SMILES) | Ki [1] [µM] | Ki [2] [µM] | Ki [3] [µM] | IC50 [4] [µM] | IC50 [5] [µM] |
| --- | --- | --- | --- | --- | --- |
| CCc1cc(Nc2cc(=O)n(CCCCN3CCN(c4c(F)cc5c(=O)c(C(=O)O)cn(C6CC6)c5c4F)CC3C)c(=O)[nH]2)ccc1C (stereo unspecified) | > 482 | > 482 | > 482 |  |  |
| CCc1cc(Nc2cc(=O)n(CCCCO)c(=O)[nH]2)ccc1C [HBEMAU] |  |  | > 1010 | > 500 | > 500 |
